Converted amounts (≈) assume the structure as drawn. Structures can show the parent of a compound that is named as a salt.
What was measured:
[1] = molecular target: T1, ALK (C1156Y) (Homo sapiens, UniProt Q9UM73, C1156Y); experiment: Biochemical kinase activity (Reaction Biology Corp)
T1 construct: purchased Reaction Biology Corp (contract testing)
Description: (§1) Biochemical kinase activity of the compound as shown in formula I was tested by Reaction Biology Corp located in Malvern, Pa., USA. The testing rules is described in Nat Biotechnol.

[2] = molecular target: T2, ALK (F1174L) (Homo sapiens, UniProt Q9UM73, F1174L); experiment: as above
T2 construct: purchased Reaction Biology Corp (contract testing)
Description: as §1

[3] = molecular target: T3, ALK (F1174S) (Homo sapiens, UniProt Q9UM73, F1174S); experiment: as above
T3 construct: purchased Reaction Biology Corp (contract testing)
Description: as §1

[4] = molecular target: T4, ALK (Fl 174L)-EML4 (Homo sapiens, UniProt Q9UM73, F1174L); experiment: as above
T4 construct: EML4 part (fusion partner); purchased Reaction Biology Corp (contract testing)
Description: as §1

[5] = molecular target: T5, ALK (Fl 174L)-NPM1 (Homo sapiens, UniProt Q9UM73, F1174L); experiment: as above
T5 construct: NPM1 part (fusion partner); purchased Reaction Biology Corp (contract testing); the other entry of the earlier key: NPM1 (P06748, Nucleophosmin)
Description: as §1

[6] = molecular target: T6, ALK (G1202R) (Homo sapiens, UniProt Q9UM73, G1202R); experiment: as above
T6 construct: purchased Reaction Biology Corp (contract testing)
Description: as §1

[7] = molecular target: T7, ALK (G1269A) (Homo sapiens, UniProt Q9UM73, G1269A); experiment: as above
T7 construct: purchased Reaction Biology Corp (contract testing)
Description: as §1

[8] = molecular target: T8, ALK (G1269S) (Homo sapiens, UniProt Q9UM73, G1269S); experiment: as above
T8 construct: purchased Reaction Biology Corp (contract testing)
Description: as §1

[9] = molecular target: T9, ALK (Homo sapiens, UniProt Q9UM73); experiment: as above
T9 construct: purchased Reaction Biology Corp (contract testing)
Description: as §1

[10] = molecular target: T10, ALK (R1275Q) (Homo sapiens, UniProt Q9UM73, R1275Q); experiment: as above
T10 construct: purchased Reaction Biology Corp (contract testing)
Description: as §1

[11] = molecular target: T11, ALK (S1206R) (Homo sapiens, UniProt Q9UM73, S1206R); experiment: as above
T11 construct: purchased Reaction Biology Corp (contract testing)
Description: as §1

[12] = molecular target: T12, ALK (T1151-L1152insT) (Homo sapiens, UniProt Q9UM73, INS1151T); experiment: as above
T12 construct: purchased Reaction Biology Corp (contract testing)
Description: as §1

[13] = molecular target: T13, ALK (T1151M) (Homo sapiens, UniProt Q9UM73, T1151M); experiment: as above
T13 construct: purchased Reaction Biology Corp (contract testing)
Description: as §1

[14] = molecular target: T14, ALK(L1152R) (Homo sapiens, UniProt Q9UM73, L1152R); experiment: as above
T14 construct: purchased Reaction Biology Corp (contract testing)
Description: as §1

[15] = molecular target: T15, ALK(L1196M) (Homo sapiens, UniProt Q9UM73, L1196M); experiment: as above
T15 construct: purchased Reaction Biology Corp (contract testing)
Description: as §1

[16] = molecular target: T16, ALK-NPM1 (Homo sapiens, UniProt Q9UM73); experiment: as above
T16 construct: NPM1 part (fusion partner); purchased Reaction Biology Corp (contract testing); the other entry of the earlier key: NPM1 (P06748, Nucleophosmin)
Description: as §1

[17] = molecular target: T17, ALK-TFG (Homo sapiens, UniProt Q9UM73); experiment: as above
T17 construct: fused on or other part: Q92734 (Protein TFG)
Description: as §1

[18] = molecular target: T18, ALK-TPM3 (Homo sapiens, UniProt Q9UM73); experiment: as above
T18 construct: fused on or other part: P06753 (Tropomyosin alpha-3 chain)
Description: as §1

[19] = molecular target: T19, CSF1R (FMS) (Homo sapiens, UniProt P07333); experiment: as above
T19 construct: purchased Reaction Biology Corp (contract testing)
Description: as §1

[20] = molecular target: T20, EPHA1 (Homo sapiens, UniProt P21709); experiment: as above
T20 construct: purchased Reaction Biology Corp (contract testing)
Description: as §1

[21] = molecular target: T21, EPHA2 (Homo sapiens, UniProt P29317); experiment: as above
T21 construct: purchased Reaction Biology Corp (contract testing)
Description: as §1

[22] = molecular target: T22, EPHB1 (Homo sapiens, UniProt P54762); experiment: as above
T22 construct: purchased Reaction Biology Corp (contract testing)
Description: as §1

[23] = molecular target: T23, NEK1 (Homo sapiens, UniProt Q96PY6); experiment: as above
T23 construct: purchased Reaction Biology Corp (contract testing)
Description: as §1

[24] = molecular target: T24, ROS/ROS1 (Homo sapiens, UniProt P08922); experiment: as above
T24 construct: purchased Reaction Biology Corp (contract testing)
Description: as §1

[25] = molecular target: T25, ROS1-GOPC (Homo sapiens, UniProt P08922); experiment: as above
T25 construct: fused on or other part: Q9HD26 (Golgi-associated PDZ and coiled-coil motif-containing protein)
Description: as §1

[26] = molecular target: T26, TRKA (Homo sapiens, UniProt P04629); experiment: as above
T26 construct: purchased Reaction Biology Corp (contract testing)
Description: as §1

[27] = molecular target: T27, TRKA-TFG (TRK-T3) (Homo sapiens, UniProt P04629); experiment: as above
T27 construct: TFG (fusion partner, UniProt Q92734); purchased Reaction Biology Corp; the other entry of the earlier key: TFG (Q92734, Protein TFG)
Description: as §1

[28] = molecular target: T28, TRKA-TPM3 (Homo sapiens, UniProt P04629); experiment: as above
T28 construct: fused on or other part: P06753 (Tropomyosin alpha-3 chain)
Description: as §1

[29] = molecular target: T29, TRKA-TPR (Homo sapiens, UniProt P04629); experiment: as above
T29 construct: fused on or other part: P12270 (Nucleoprotein TPR)
Description: as §1

[30] = molecular target: T30, TRKB (Homo sapiens, UniProt Q16620); experiment: as above
T30 construct: purchased Reaction Biology Corp
Description: as §1

[31] = molecular target: T31, TRKC (Homo sapiens, UniProt Q16288); experiment: as above
T31 construct: purchased Reaction Biology Corp
Description: as §1

[32] = molecular target: T32, c-MET (Homo sapiens, UniProt P08581); experiment: as above
T32 construct: purchased Reaction Biology Corp (contract testing)
Description: as §1

[33] = Stability of the crystalline form; type: physicochemical
[34] = Assay of Dynamic Vapor Sorption (DVS); type: physicochemical; settings: for weight change: range of 0% to 80% RH
[35] = Solubility determination in water; type: physicochemical; settings: room temperature
[36] = Pharmacokinetics in female SD rats, intragastric gavage; type: in vivo; settings: PO
Description: 6 female SD rats were divided into two groups, three rats in each group. 50 mg/kg of Crystalline form A of the compound of formula I and free base amorphis of the compound of formula I were administered by intragastric gavage at single dose to each female SD rat respectively; the blood samples were collected through the jugular vein at the specified time, and the plasma from these samples was separated and stored in the refrigerator at −80° C.
For the above plasma from these samples, protein was precipitated using acetonitrile, the supernatant was diluted 3-fold by water, then took 5 μL of the solution for LC-MS/MS test, and data is shown in Table 9: […]

[37] = cited from earlier work
[38] = Sprague-Dawley, rat, 50 mg/kg single dose, plasma

T11 sequence (Q9UM73 19-1620 S1206R): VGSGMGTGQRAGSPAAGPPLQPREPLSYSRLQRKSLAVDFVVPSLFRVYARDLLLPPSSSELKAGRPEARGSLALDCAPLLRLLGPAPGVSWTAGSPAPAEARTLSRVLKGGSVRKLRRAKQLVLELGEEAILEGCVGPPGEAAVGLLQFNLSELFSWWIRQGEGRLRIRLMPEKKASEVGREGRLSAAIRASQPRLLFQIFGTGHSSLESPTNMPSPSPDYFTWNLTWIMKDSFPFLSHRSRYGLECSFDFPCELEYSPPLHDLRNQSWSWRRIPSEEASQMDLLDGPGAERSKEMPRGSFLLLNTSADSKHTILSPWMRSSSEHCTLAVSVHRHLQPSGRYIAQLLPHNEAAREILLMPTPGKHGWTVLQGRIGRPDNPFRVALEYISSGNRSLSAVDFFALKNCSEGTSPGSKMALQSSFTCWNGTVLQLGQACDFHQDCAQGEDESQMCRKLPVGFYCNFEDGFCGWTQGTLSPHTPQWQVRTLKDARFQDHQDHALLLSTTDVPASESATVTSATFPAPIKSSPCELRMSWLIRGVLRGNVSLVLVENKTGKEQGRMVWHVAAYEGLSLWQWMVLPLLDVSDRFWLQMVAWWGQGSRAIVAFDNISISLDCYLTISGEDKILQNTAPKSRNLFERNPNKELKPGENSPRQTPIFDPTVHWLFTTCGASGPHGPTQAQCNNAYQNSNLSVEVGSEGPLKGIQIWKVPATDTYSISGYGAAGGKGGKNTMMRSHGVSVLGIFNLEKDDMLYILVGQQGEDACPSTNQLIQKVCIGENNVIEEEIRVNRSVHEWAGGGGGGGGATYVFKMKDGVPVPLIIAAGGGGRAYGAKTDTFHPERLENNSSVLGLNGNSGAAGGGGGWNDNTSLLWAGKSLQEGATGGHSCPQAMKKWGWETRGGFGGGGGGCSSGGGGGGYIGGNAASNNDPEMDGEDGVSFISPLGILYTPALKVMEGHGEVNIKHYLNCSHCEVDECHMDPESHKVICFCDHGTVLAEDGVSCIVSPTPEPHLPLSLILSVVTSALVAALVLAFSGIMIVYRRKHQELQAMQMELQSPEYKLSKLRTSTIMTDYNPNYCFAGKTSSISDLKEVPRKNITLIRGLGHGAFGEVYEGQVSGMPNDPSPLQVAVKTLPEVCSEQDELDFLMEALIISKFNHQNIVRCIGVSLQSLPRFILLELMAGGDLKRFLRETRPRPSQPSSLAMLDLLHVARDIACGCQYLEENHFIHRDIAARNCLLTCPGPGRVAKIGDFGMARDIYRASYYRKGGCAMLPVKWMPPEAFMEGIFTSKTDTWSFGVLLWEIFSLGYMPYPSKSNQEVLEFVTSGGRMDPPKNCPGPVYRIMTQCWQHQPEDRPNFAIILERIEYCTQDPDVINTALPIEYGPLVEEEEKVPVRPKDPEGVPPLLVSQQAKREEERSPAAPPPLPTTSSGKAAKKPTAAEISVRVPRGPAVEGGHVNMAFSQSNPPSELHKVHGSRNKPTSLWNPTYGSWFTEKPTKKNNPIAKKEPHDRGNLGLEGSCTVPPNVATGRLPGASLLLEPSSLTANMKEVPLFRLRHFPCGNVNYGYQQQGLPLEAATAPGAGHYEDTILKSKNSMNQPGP
T31 sequence (Q16288 32-839): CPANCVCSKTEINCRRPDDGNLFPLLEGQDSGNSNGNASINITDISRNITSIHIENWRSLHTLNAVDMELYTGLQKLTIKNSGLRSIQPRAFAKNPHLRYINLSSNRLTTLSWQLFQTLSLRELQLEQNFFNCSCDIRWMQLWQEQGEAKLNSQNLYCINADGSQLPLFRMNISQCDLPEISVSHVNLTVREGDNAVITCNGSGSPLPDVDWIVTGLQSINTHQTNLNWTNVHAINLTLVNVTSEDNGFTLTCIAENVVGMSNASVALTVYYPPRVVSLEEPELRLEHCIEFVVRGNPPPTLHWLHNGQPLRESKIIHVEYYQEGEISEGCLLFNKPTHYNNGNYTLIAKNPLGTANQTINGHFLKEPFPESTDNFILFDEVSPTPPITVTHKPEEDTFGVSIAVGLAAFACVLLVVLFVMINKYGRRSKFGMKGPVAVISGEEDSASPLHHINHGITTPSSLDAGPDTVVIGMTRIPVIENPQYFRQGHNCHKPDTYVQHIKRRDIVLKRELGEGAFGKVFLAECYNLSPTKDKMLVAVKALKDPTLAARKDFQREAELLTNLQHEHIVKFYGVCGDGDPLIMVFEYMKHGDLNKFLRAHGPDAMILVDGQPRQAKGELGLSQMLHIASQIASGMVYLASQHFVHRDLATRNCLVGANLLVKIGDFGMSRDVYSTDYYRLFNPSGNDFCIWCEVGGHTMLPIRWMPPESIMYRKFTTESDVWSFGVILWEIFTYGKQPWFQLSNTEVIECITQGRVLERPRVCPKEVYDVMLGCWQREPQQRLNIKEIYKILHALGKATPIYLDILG
T18 sequence (Q9UM73 1116-1392 limits assumed): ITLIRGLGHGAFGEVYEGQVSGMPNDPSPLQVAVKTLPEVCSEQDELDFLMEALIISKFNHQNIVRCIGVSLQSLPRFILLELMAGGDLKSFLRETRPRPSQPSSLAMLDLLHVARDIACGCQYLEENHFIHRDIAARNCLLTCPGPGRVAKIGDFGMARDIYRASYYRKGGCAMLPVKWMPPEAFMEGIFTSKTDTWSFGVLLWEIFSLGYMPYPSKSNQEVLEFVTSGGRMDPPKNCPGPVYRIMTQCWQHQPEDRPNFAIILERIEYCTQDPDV
T29 sequence (P04629 510-796 limits assumed): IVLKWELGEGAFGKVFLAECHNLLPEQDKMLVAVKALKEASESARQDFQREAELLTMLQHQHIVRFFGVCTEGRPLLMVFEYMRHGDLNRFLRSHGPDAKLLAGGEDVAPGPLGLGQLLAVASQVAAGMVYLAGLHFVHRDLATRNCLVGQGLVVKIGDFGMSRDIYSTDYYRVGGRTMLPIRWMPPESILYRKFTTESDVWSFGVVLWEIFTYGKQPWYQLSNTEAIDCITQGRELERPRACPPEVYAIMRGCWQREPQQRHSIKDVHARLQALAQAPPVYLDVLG
T28 sequence (P04629 510-796 limits assumed): as above
T2 sequence (Q9UM73 19-1620 F1174L): as the sequence (Q9UM73 19-1620 S1206R) above, with F1156L, R1188S counted along it

C[C@@H]1CN(C(=O)c2ccc(NC(=O)c3cc(O[C@H](C)c4c(Cl)ccc(F)c4Cl)c(N)nn3)cc2)C[C@H](C)N1 [compound of Formula I, {5-[(1R)-1-(2,6-dichloro-3-fluorophenyl)ethoxy]-6-aminopyridazin-3-ly}-N-{4-[((3S,5R)-3,5-dimethylpiperazinyl)carbonyl]phenyl} carboxamide hydrochloride]
IC50 [1]: 0.28 nM
IC50 [2]: 0.16 nM
IC50 [3]: 0.17 nM
IC50 [4]: 0.53 nM
IC50 [5]: 0.47 nM
IC50 [6]: 3.83 nM
IC50 [7]: 1.14 nM
IC50 [8]: 1.39 nM
IC50 [9]: 0.16 nM
IC50 [10]: 1.06 nM
IC50 [11]: 0.17 nM
IC50 [12]: 0.26 nM
IC50 [13]: 0.13 nM
IC50 [14]: 0.58 nM
IC50 [15]: 0.32 nM
IC50 [16]: 0.68 nM
IC50 [17]: 0.73 nM
IC50 [18]: 0.21 nM
IC50 [19]: 13.4 nM
IC50 [20]: 6.22 nM
IC50 [21]: 1.14 nM
IC50 [22]: 8.59 nM
IC50 [23]: 6.08 nM
IC50 [24]: 1.41 nM
IC50 [25]: 0.98 nM
IC50 [26]: 8 nM
IC50 [27]: 0.46 nM
IC50 [28]: 0.62 nM
IC50 [29]: 1.22 nM
IC50 [30]: 3.39 nM
IC50 [31]: 0.46 nM
IC50 [32]: 9.59 nM

C[C@@H]1CN(C(=O)c2ccc(NC(=O)c3cc(O[C@H](C)c4c(Cl)ccc(F)c4Cl)c(N)nn3)cc2)C[C@H](C)N1 [Crystalline form D]
change in crystalline form ([33]; dried at room temperature or dried in vacuum at room temperature): transformed into Crystalline form B

C[C@@H]1CN(C(=O)c2ccc(NC(=O)c3cc(O[C@H](C)c4c(Cl)ccc(F)c4Cl)c(N)nn3)cc2)C[C@H](C)N1 [Crystalline form C]
change in crystalline form ([33]; dried in vacuum at room temperature overnight): almost completely converted to Crystalline form A

C[C@@H]1CN(C(=O)c2ccc(NC(=O)c3cc(O[C@H](C)c4c(Cl)ccc(F)c4Cl)c(N)nn3)cc2)C[C@H](C)N1 [Amorphis]
weight change [34]: about 15.7%
hygroscopicity judgment ([34]; weight change 0-80% RH): extremely hygroscopic

C[C@@H]1CN(C(=O)c2ccc(NC(=O)c3cc(O[C@H](C)c4c(Cl)ccc(F)c4Cl)c(N)nn3)cc2)C[C@H](C)N1 [Crystalline form A]
change in crystalline form ([33]; 25° C.-60% RH for 10 days): no change in crystalline form
change in crystalline form ([33]; 40° C.-75% RH for 10 days): no change in crystalline form
change in crystalline form ([33]; 80° C. for 24 hours): no change in crystalline form
moisture removed ([34]; 0% RH drying stage): about 1.5%
moisture absorbed ([34]; 0% RH-80% RH range): about 2.3%
moisture removed ([34]; desorption stage, 30% RH): 1.5%
weight change [34]: about 2.3%
change of the weight ([34]; range of 30-80% RH): less than 2%
solubility [35]: 20 to 100 mg/mL (≈ 35.6 to 178 mM)
absorption in vivo compared with the free base amorphis ([36]; 50 mg/kg): higher absorption in vivo
AUC(0-t) [36, 38]: 11600 ng·h/mL
Cmax [36, 38]: 1440 ng/mL
Tmax [36, 38]: 2.67 h

C[C@@H](Oc1cc(-c2cnn(C3CCNCC3)c2)cnc1N)c1c(Cl)ccc(F)c1Cl [crizotinib, Crizotinib]
disease control ([37]; Phase I clinical trial): 90%
objective response rate (ORR) ([37]; Phase I clinical trial): 64%
time of treatment until resistance and disease progression ([37]; most patients): 6-18 months

C[C@@H]1CN(C(=O)c2ccc(NC(=O)c3cc(O[C@H](C)c4c(Cl)ccc(F)c4Cl)c(N)nn3)cc2)C[C@H](C)N1 [Crystalline form B]
change in crystalline form ([33]; 25° C.-60% RH for 10 days): no change in crystalline form
change in crystalline form ([33]; 40° C.-75% RH for 10 days): no change in crystalline form
change in crystalline form ([33]; 80° C. for 24 hours): no change in crystalline form
moisture absorbed ([34]; 10% RH in the adsorption stage): about 4%
weight change [34]: about 2.3%
change of weight ([34]; range of 10-80% RH): less than 2%
moisture removed ([34]; under 10% RH): about 4%

C[C@@H]1CN(C(=O)c2ccc(NC(=O)c3cc(O[C@H](C)c4c(Cl)ccc(F)c4Cl)c(N)nn3)cc2)C[C@H](C)N1 [Crystalline form E]
change in crystalline form ([33]; placed in a desiccator for 2 days): transformed into Crystalline form A

— patent US10899744B2, “Crystalline form of compound suppressing protein kinase activity, and application thereof” (XCOVERY HOLDINGS, INC., priority 2016, dated 2021)
